The kinase profiling compilation of Christmann-Franck et al. (2016)

Experiments:
Settings in all cases: compound 10.0 µM
SRPK2 (human) = SRPK2 (human) (UniProt P78362)
RPS6KA4 KD1 KD2 (human) = RPS6KA4 KD1 KD2 (human) (UniProt O75676)
SGK1 (human) = SGK1 (human) (UniProt O00141)
EPHB3 (human) = EPHB3 (human) (UniProt P54753)
PTK2B (human) = PTK2B (human) (UniProt Q14289)
MAPK3 (human) = MAPK3 (human) (UniProt P27361)
ACVR1B (human) = ACVR1B (human) (UniProt P36896)
CLK1 (human) = CLK1 (human) (UniProt P49759)
AKT2 (human) = AKT2 (human) (UniProt P31751)
STK4 (human) = STK4 (human) (UniProt Q13043)
DDR2 (human) = DDR2 (human) (UniProt Q16832)
AURKA (human) = AURKA (human) (UniProt O14965)
KIT (human) = KIT (human) (UniProt P10721)
FYN (human) = FYN (human) (UniProt P06241)
GRK6 (human) = GRK6 (human) (UniProt P43250)
CAMK2A (human) = CAMK2A (human) (UniProt Q9UQM7)
Sequence of CAMK2A (human) (Q9UQM7 whole entry, looked up): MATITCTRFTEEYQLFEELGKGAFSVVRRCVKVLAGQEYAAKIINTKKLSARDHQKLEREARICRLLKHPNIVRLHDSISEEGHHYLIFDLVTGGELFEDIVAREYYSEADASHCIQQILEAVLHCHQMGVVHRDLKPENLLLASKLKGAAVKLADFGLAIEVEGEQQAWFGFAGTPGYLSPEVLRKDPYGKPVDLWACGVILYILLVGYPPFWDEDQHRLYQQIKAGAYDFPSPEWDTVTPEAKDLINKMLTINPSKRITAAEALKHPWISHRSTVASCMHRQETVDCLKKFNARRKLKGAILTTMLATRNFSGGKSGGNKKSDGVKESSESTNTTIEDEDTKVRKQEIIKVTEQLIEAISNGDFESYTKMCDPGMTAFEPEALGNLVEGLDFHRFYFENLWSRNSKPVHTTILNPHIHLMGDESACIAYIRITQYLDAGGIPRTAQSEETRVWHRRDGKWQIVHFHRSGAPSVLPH

IGF1R (human) = IGF1R (human) (UniProt P08069)
EPHA6 (human) = EPHA6 (human) (UniProt Q9UF33)
PRKCD (human) = PRKCD (human) (UniProt Q05655)
CAMK2D (human) = CAMK2D (human) (UniProt Q13557)
Sequence of CAMK2D (human) (Q13557 whole entry, looked up): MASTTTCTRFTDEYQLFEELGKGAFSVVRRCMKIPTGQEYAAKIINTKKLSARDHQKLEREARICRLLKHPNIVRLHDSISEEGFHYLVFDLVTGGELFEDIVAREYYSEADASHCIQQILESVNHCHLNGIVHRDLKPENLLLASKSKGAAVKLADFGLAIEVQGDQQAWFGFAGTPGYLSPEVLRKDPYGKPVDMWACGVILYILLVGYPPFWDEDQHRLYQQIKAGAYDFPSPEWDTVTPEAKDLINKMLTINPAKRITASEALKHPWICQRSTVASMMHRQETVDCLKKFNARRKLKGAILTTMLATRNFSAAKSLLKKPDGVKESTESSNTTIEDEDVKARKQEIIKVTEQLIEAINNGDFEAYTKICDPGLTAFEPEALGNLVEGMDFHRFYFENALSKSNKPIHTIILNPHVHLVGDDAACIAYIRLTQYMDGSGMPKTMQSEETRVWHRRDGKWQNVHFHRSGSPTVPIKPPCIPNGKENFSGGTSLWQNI

MAP3K10 (human) = MAP3K10 (human) (UniProt Q02779)
PKN1 (human) = PKN1 (human) (UniProt Q16512)
ITK (human) = ITK (human) (UniProt Q08881)
NTRK3 (human) = NTRK3 (human) (UniProt Q16288)
PHKG1 (human) = PHKG1 (human) (UniProt Q16816)
MAPK14 (human) = MAPK14 (human) (UniProt Q16539)
CLK4 (human) = CLK4 (human) (UniProt Q9HAZ1)
Sequence of CLK4 (human) (Q9HAZ1 whole entry, looked up): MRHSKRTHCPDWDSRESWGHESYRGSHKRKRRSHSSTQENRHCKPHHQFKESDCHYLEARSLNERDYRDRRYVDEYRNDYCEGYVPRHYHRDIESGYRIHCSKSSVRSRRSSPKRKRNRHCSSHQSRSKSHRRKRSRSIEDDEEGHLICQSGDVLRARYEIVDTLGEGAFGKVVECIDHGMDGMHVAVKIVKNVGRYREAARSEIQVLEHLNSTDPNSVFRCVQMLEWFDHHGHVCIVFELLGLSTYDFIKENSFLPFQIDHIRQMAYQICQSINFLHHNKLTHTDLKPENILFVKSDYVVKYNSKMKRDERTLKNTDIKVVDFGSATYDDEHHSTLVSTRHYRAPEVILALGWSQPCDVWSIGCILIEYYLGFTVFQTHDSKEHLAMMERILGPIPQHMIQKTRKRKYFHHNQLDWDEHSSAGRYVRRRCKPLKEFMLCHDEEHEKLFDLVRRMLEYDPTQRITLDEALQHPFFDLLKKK

BRSK1 (human) = BRSK1 (human) (UniProt Q8TDC3)
CHUK (human) = CHUK (human) (UniProt O15111)
CHEK1 (human) = CHEK1 (human) (UniProt O14757)
RIPK2 (human) = RIPK2 (human) (UniProt O43353)
Sequence of RIPK2 (human) (O43353 whole entry, looked up): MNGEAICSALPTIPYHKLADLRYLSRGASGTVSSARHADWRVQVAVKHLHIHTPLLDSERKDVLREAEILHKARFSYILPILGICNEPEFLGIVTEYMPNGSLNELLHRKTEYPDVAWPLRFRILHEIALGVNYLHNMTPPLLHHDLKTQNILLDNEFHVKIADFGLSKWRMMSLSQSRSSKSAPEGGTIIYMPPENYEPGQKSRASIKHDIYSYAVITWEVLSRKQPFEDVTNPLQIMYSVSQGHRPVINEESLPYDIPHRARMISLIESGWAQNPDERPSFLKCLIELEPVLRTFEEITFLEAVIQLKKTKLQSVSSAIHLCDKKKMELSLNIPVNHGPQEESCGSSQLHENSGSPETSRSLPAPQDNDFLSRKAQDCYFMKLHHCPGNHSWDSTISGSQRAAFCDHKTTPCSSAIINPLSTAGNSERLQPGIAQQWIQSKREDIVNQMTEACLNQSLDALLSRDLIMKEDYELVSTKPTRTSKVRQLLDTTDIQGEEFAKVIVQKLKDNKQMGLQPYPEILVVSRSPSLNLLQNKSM

NUAK2 (human) = NUAK2 (human) (UniProt Q9H093)
MARK2 (human) = MARK2 (human) (UniProt Q7KZI7)
PAK4 (human) = PAK4 (human) (UniProt O96013)
MELK (human) = MELK (human) (UniProt Q14680)
ULK2 (human) = ULK2 (human) (UniProt Q8IYT8)
MINK1 (human) = MINK1 (human) (UniProt Q8N4C8)
NEK9 (human) = NEK9 (human) (UniProt Q8TD19)
MERTK (human) = MERTK (human) (UniProt Q12866)
STK3 (human) = STK3 (human) (UniProt Q13188)
CAMKK1 (human) = CAMKK1 (human) (UniProt Q8N5S9)
CSNK1G2 (human) = CSNK1G2 (human) (UniProt P78368)
PRKD3 (human) = PRKD3 (human) (UniProt O94806)
Sequence of PRKD3 (human) (O94806 whole entry, looked up): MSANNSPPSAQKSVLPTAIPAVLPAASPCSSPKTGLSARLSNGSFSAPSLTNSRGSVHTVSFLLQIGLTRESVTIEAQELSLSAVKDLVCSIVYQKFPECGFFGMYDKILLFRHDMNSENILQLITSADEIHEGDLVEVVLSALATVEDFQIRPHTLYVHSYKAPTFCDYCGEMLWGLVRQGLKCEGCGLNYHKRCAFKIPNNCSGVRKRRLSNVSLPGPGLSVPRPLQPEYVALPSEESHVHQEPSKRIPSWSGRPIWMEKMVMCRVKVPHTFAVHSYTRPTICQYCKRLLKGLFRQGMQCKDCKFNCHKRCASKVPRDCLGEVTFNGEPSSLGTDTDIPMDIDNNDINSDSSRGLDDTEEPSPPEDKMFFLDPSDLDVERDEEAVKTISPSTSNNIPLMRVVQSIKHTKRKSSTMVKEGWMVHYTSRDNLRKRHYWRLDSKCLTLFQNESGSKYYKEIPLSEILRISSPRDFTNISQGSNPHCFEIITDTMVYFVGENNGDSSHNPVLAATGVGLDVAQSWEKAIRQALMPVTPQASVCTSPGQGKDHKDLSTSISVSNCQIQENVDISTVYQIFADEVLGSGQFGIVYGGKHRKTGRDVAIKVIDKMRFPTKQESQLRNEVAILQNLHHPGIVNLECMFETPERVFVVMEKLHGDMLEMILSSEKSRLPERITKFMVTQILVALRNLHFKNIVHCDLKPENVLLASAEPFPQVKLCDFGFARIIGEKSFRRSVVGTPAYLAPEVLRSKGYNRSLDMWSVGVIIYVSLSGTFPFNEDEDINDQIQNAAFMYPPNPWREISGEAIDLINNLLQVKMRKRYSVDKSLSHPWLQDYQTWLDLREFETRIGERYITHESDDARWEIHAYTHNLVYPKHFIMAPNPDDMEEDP

LTK (human) = LTK (human) (UniProt P29376)
TNK2 (human) = TNK2 (human) (UniProt Q07912)

Sequence of RPS6KA4 KD1 KD2 (human) (O75676 whole entry, looked up): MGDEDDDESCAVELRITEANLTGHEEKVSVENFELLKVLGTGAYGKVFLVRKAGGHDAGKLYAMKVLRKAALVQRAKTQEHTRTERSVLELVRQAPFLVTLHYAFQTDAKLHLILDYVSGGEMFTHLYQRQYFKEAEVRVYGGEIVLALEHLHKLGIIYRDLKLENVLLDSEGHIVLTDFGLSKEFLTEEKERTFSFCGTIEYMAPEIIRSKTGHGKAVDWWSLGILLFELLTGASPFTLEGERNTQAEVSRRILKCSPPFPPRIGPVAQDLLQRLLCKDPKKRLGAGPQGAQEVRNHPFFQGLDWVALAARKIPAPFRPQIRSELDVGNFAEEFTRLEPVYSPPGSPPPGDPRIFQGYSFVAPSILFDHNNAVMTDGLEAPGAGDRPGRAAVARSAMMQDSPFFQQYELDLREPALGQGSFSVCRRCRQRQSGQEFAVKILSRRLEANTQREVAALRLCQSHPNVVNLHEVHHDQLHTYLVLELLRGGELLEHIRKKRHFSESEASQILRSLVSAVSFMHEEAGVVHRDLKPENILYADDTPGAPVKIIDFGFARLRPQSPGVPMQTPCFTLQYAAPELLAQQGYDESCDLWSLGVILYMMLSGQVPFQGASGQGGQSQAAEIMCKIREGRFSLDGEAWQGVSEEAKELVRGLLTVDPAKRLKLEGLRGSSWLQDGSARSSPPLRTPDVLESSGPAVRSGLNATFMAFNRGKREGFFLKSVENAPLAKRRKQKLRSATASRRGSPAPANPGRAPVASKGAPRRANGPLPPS
Sequence of SRPK2 (human) (P78362 whole entry, looked up): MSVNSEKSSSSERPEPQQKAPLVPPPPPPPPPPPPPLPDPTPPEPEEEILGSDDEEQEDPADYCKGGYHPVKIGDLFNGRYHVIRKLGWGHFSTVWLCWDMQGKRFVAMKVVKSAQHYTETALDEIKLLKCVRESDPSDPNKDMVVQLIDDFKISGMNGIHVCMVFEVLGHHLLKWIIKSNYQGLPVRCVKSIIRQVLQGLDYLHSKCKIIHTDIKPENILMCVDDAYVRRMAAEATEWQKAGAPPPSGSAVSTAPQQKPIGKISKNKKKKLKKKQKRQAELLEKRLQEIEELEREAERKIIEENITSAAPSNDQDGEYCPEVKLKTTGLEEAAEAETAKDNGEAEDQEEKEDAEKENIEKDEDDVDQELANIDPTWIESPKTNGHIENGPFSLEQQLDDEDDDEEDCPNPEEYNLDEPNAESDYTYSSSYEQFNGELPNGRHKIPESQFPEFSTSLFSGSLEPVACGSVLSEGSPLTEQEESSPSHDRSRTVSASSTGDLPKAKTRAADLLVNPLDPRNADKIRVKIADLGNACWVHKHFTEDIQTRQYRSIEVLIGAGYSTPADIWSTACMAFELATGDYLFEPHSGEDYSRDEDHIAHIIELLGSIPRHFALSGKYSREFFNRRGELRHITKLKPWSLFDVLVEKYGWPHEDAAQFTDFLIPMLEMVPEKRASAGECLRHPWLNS
Sequence of SGK1 (human) (O00141 whole entry, looked up): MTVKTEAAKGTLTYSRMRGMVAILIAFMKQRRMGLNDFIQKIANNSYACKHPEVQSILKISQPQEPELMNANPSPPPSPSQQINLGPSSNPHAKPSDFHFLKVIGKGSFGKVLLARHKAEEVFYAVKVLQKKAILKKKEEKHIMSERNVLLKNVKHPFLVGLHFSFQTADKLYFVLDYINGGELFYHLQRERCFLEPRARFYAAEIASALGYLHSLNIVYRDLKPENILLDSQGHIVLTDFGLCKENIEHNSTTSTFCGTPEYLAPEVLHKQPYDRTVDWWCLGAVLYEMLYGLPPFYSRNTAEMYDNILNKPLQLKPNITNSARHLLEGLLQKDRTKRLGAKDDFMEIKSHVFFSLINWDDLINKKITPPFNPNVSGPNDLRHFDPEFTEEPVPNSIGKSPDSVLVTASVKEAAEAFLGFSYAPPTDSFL

residual activity (SRPK2 (human)): 98.5%
residual activity (RPS6KA4 KD1 KD2 (human)): 90.5%
residual activity (SGK1 (human)): 99%
residual activity (EPHB3 (human)): 92.5%
residual activity (PTK2B (human)): 110%
residual activity (MAPK3 (human)): 99%
residual activity (ACVR1B (human)): 98.5%
residual activity (CLK1 (human)): 99%
residual activity (AKT2 (human)): 93.5%
residual activity (STK4 (human)): 97%
residual activity (DDR2 (human)): 102%
residual activity (AURKA (human)): 88%
residual activity (KIT (human)): 99%
residual activity (FYN (human)): 100%
residual activity (GRK6 (human)): 104%
residual activity (CAMK2A (human)): 104%
residual activity (IGF1R (human)): 96.5%
residual activity (EPHA6 (human)): 90%
residual activity (PRKCD (human)): 102%
residual activity (CAMK2D (human)): 100%
residual activity (MAP3K10 (human)): 103%
residual activity (PKN1 (human)): 89%
residual activity (ITK (human)): 89.5%
residual activity (NTRK3 (human)): 102%
residual activity (PHKG1 (human)): 98%
residual activity (MAPK14 (human)): 100%
residual activity (CLK4 (human)): 95.5%
residual activity (BRSK1 (human)): 99.5%
residual activity (CHUK (human)): 93%
residual activity (CHEK1 (human)): 79%
residual activity (RIPK2 (human)): 95.5%
residual activity (NUAK2 (human)): 103%
residual activity (MARK2 (human)): 92.5%
residual activity (PAK4 (human)): 97.5%
residual activity (MELK (human)): 79.5%
residual activity (ULK2 (human)): 99.5%
residual activity (MINK1 (human)): 106%
residual activity (MERTK (human)): 98.5%
residual activity (STK3 (human)): 90%
residual activity (CAMKK1 (human)): 96%
residual activity (CSNK1G2 (human)): 90.5%
residual activity (PRKD3 (human)): 102%
residual activity (LTK (human)): 102%
residual activity (TNK2 (human)): 93.5%
Structure (SMILES): CC[C@H](C)n1cc(C)c2c(C(=O)NCc3c(C)cc(C)[nH]c3=O)cc(-c3ccc(N4CCNCC4)nc3)cc21
residual activity (NEK9 (human)): 102%
